# ChEMBL document CHEMBL1201862, “PubChem BioAssay data set” (2004)
#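 Five concentrations, 48 hours, 96-well plates. At the GI50, growth is halved.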 Activity calls are given as the source filed them. No stated cut-off is given here; in the data, active = GI50 up to about 1.1 µM and inactive = higher.
# Columns and labels:
# Experiment in all cases: NCI-60 cell line screen, 48 h
# SK-MEL-28 = test system: SK-MEL-28
# SF-295 = test system: SF-295
# SK-OV-3 = test system: SK-OV-3
# Malme-3M = test system: Malme-3M
# OVCAR-4 = test system: OVCAR-4
# OVCAR-8 = test system: OVCAR-8
# CCRF-CEM = test system: CCRF-CEM
# SK-MEL-2 = test system: SK-MEL-2
# NCI-H460 = test system: NCI-H460
# 786-0 = test system: 786-0
# U-251 = test system: U-251
# HT-29 = test system: HT-29
# TK-10 = test system: TK-10
# M14 = test system: M14
# SR = test system: SR
# NCI-H23 = test system: NCI-H23
# HCT-116 = test system: HCT-116
# T47D = test system: T47D
# DU-145 = test system: DU-145
# LOX IMVI = test system: LOX IMVI
SMILES,GI50 (SK-MEL-28),GI50 (SF-295),GI50 (SK-OV-3),GI50 (Malme-3M),GI50 (OVCAR-4),GI50 (OVCAR-8),GI50 (CCRF-CEM),GI50 (SK-MEL-2),GI50 (NCI-H460),GI50 (786-0),GI50 (U-251),GI50 (HT-29),GI50 (TK-10),GI50 (M14),GI50 (SR),GI50 (NCI-H23),GI50 (HCT-116),GI50 (T47D),GI50 (DU-145),GI50 (LOX IMVI)
COc1ccc2[nH]c(C(O)(Cc3cccnc3)Cc3cccnc3)cc2c1,> 100 µM (inactive),> 100 µM (inactive),> 100 µM (inactive),> 100 µM (inactive),> 100 µM (inactive),> 100 µM (inactive),> 100 µM (inactive),> 100 µM (inactive),> 100 µM (inactive),> 100 µM (inactive),> 100 µM (inactive),> 100 µM (inactive),> 100 µM (inactive),> 100 µM (inactive),> 100 µM (inactive),> 100 µM (inactive),> 100 µM (inactive),> 100 µM (inactive),> 100 µM (inactive),
Oc1c(Cl)cc2cc1-c1cc(cc(Cl)c1O)CCc1c(cc(Cl)c(O)c1Cl)-c1cc(Cl)c(c(Cl)c1O)/C=C\2,7.08 µM (inactive),,9.16 µM (inactive),,9.04 µM (inactive),7.91 µM (inactive),3.56 µM (inactive),8.81 µM (inactive),4.42 µM (inactive),8.36 µM (inactive),11.6 µM (inactive),11.4 µM (inactive),,7.23 µM (inactive),3.91 µM (inactive),13.3 µM (inactive),8.11 µM (inactive),8.41 µM (inactive),9.18 µM (inactive),9.44 µM (inactive)
COc1ccc(COCCOCc2nc(C#N)c(N)o2)cc1,> 100 µM (inactive),> 100 µM (inactive),> 100 µM (inactive),,> 100 µM (inactive),> 100 µM (inactive),29 µM (inactive),> 100 µM (inactive),> 100 µM (inactive),> 100 µM (inactive),> 100 µM (inactive),> 100 µM (inactive),> 100 µM (inactive),> 100 µM (inactive),> 100 µM (inactive),> 100 µM (inactive),> 100 µM (inactive),> 100 µM (inactive),> 100 µM (inactive),> 100 µM (inactive)
COc1cc2c(cc1OCCCC(=O)Nc1cc(C(=O)NCCCN(C)C)n(C)n1)N=CC1CCCN1C2=O (stereo not drawn),5.46 µM (inactive),> 100 µM (inactive),> 42.2 µM (inactive),6.97 µM (inactive),6.44 µM (inactive),,,10.8 µM (inactive),9.89 µM (inactive),6.46 µM (inactive),8.77 µM (inactive),7.31 µM (inactive),7.4 µM (inactive),8.34 µM (inactive),0.213 µM (active),11.5 µM (inactive),12.9 µM (inactive),9.66 µM (inactive),12.9 µM (inactive),7.71 µM (inactive)
Nc1ncc2ncn(C3CCC(CO)O3)c2n1 (stereo not drawn),> 100 µM (inactive),> 100 µM (inactive),> 100 µM (inactive),,> 100 µM (inactive),> 100 µM (inactive),> 100 µM (inactive),> 100 µM (inactive),> 100 µM (inactive),> 100 µM (inactive),> 100 µM (inactive),> 100 µM (inactive),> 100 µM (inactive),> 100 µM (inactive),> 100 µM (inactive),> 100 µM (inactive),> 100 µM (inactive),> 100 µM (inactive),> 100 µM (inactive),> 100 µM (inactive)
COC(CO[Si](C)(C)N[Si](C)(C)OCC(OC)c1ccccc1)c1ccccc1 (stereo not drawn),> 100 µM (inactive),> 100 µM (inactive),> 100 µM (inactive),,> 100 µM (inactive),> 100 µM (inactive),> 100 µM (inactive),> 100 µM (inactive),> 100 µM (inactive),> 100 µM (inactive),> 100 µM (inactive),,> 100 µM (inactive),> 100 µM (inactive),> 100 µM (inactive),> 100 µM (inactive),> 100 µM (inactive),> 100 µM (inactive),> 100 µM (inactive),> 100 µM (inactive)
c1ccc2cc(OCC3CO3)c(OCC3CO3)cc2c1 (stereo not drawn),11.9 µM (inactive),2.21 µM (inactive),10.6 µM (inactive),7.64 µM (inactive),,2.94 µM (inactive),0.16 µM (active),10.9 µM (inactive),4.2 µM (inactive),1.54 µM (inactive),2.9 µM (inactive),7.05 µM (inactive),12.1 µM (inactive),1.64 µM (inactive),0.333 µM (active),2.72 µM (inactive),1.3 µM (inactive),10.9 µM (inactive),3.85 µM (inactive),1.03 µM (active)
Cn1c2ccccc2c(=S)c2cc(NC(=O)CCCCC(=O)Nc3ccc4c(c3)c(=S)c3ccccc3n4C)ccc21,> 100 µM (inactive),> 100 µM (inactive),> 100 µM (inactive),,,34.3 µM (inactive),> 100 µM (inactive),> 100 µM (inactive),> 100 µM (inactive),72.1 µM (inactive),55.8 µM (inactive),> 100 µM (inactive),> 100 µM (inactive),> 100 µM (inactive),> 100 µM (inactive),> 100 µM (inactive),> 100 µM (inactive),> 100 µM (inactive),> 100 µM (inactive),> 100 µM (inactive)
CC(C)c1cc(Cl)nc(Cl)n1,> 100 µM (inactive),> 100 µM (inactive),> 100 µM (inactive),,> 100 µM (inactive),> 100 µM (inactive),> 100 µM (inactive),> 100 µM (inactive),> 100 µM (inactive),> 100 µM (inactive),> 100 µM (inactive),> 100 µM (inactive),> 100 µM (inactive),> 100 µM (inactive),> 100 µM (inactive),> 100 µM (inactive),> 100 µM (inactive),> 100 µM (inactive),> 100 µM (inactive),> 100 µM (inactive)
Nc1ccc(Nc2cc(O)nc(O)n2)cc1,> 100 µM (inactive),> 100 µM (inactive),> 100 µM (inactive),> 100 µM (inactive),> 100 µM (inactive),> 100 µM (inactive),> 100 µM (inactive),,> 100 µM (inactive),> 100 µM (inactive),> 100 µM (inactive),> 100 µM (inactive),> 100 µM (inactive),,> 100 µM (inactive),> 100 µM (inactive),> 100 µM (inactive),39.3 µM (inactive),> 100 µM (inactive),> 100 µM (inactive)
O=C(/C=C/c1ccc(O)c(O)c1)Oc1ccccc1,22.5 µM (inactive),19.5 µM (inactive),45.6 µM (inactive),,15.2 µM (inactive),12.7 µM (inactive),0.292 µM (active),15.7 µM (inactive),19.2 µM (inactive),10.6 µM (inactive),12.6 µM (inactive),11.3 µM (inactive),28.1 µM (inactive),15.5 µM (inactive),0.434 µM (active),14.4 µM (inactive),9.71 µM (inactive),9.71 µM (inactive),13.2 µM (inactive),4.9 µM (inactive)
